Data taken from patent publication US12509437B2, “Substituted thiophene carboxamides and derivatives thereof as microbicides” (Bayer Aktiengesellschaft, priority 2019, dated 2025).
Read-outs that look alike come from different tables or passages of the source.

Tests used:
[1] = test system: Pseudomonas syringae pv. tomato; experiment: In vivo preventive test on Pseudomonas syringae pv. tomato (bacterial speck on tomato); conditions: sprayed 72 hours before inoculation, evaluated 5 or 6 days after inoculation, read-out: efficacy; for pest or weed control at 500 ppm: 500 ppm of active ingredient; for pest or weed control at 31 ppm: 31 ppm of active ingredient; for pest or weed control at 125 ppm: 125 ppm of active ingredient
Description: The tested active ingredients were prepared by homogenization in a mixture of acetone/Dimethyl sulfoxide/Tween®, and then diluted with water to obtain the desired active material concentration.
The young plants of tomato were treated by spraying the active ingredient prepared as described above. Control plants were treated only with an aqueous solution of acetone/Dimethyl sulfoxide/Tween®.
After 72 hours, the plants were contaminated by spraying the leaves with an aqueous bacteria suspension of Pseudomonas syringae pv. tomato. The contaminated tomato plants were incubated for 4 days in saturated atmosphere at 22° C. day/20° C. night−70% HR and then for 1 or 2 days at 22° C. day/20° C. night at 70-80% relative humidity.
The test was evaluated 5 or 6 days after the inoculation. 0% means an efficacy which corresponds to that of the control plants while an efficacy of 100% means that no disease was observed.

[2] = test system: Colletotrichum lindemuthianum; experiment: Colletotrichum lindemuthianum in vitro cell test; format: cell-based; conditions: 144 h, 6 days incubation, read-out: efficacy (inhibition of fungal growth; no direct activity); for inhibition at 5 ppm: 5 ppm of active ingredient; for inhibition at 20 ppm: 20 ppm of active ingredient
In short: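 Inhibition of spore germination and mycelial growth in liquid culture, read spectrometrically after 6 days incubation. Compounds added from DMSO (final ≤1%) to spores in glucose/peptone/yeast-extract medium; absorbance compared with untreated controls.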

[3] = test system: Xanthomonas campestris pv. campestris; experiment: Xanthomonas campestris pv. campestris in vitro cell test; format: cell-based; conditions: 24 h of incubation, read-out: efficacy (inhibition of bacteria growth; no direct activity); for inhibition at 5 ppm: 5 ppm of active ingredient; for inhibition at 20 ppm: 20 ppm of active ingredient
In short: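 Bacteria from liquid pre-culture diluted to set OD in LB broth and exposed to compounds dissolved in DMSO (final ≤1%). After 24 h, growth read by absorbance; inhibition derived relative to compound-free control wells.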

[4] = test system: salicylate responsive promoter sequence of the PR1 (pathogenesis-related protein I) gene (AT2G14610); experiment: Induction of defense gene expression in Arabidopsis thaliana (PR1 promoter-GFP reporter plants); format: in vivo; conditions: 72 h, 3rd day after spraying, mock treated leaves set as 1.00, read-out: relative fluorescence value
In short: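 Transgenic A. thaliana carrying GFP under the salicylate-responsive PR1 promoter, grown five days, then sprayed with compounds. Whole-plant fluorescence imaged and quantified on day 3 post-spray, expressed relative to mock-treated leaf background set at 1.00.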

Uromyces appendiculatus = experiment: In vivo preventive test on Uromyces appendiculatus (bean rust); conditions: 240 h, sprayed 72 hours before inoculation, evaluated 10 days after inoculation, read-out: efficacy; for pest or weed control at 31 ppm: 31 ppm of active ingredient; for pest or weed control at 125 ppm: 125 ppm of active ingredient; for pest or weed control at 500 ppm: 500 ppm of active ingredient
In short: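 Young bean plants sprayed with compound in acetone/DMSO/Tween diluted in water, then inoculated 72 h later with spore suspension. Incubated 24 h at 20° C., 100% RH, then 9 days at 20° C., 70-80% RH. Efficacy scored 10 days post-inoculation, 0% = untreated-control level, 100% = no disease.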

Peronospora parasitica = experiment: In vivo preventive test on Peronospora parasitica (Crucifer downy mildew) on cabbage; conditions: Hyaloperonospora parasitica, 120 h, sprayed 72 hours before inoculation, evaluated 5 days after inoculation, read-out: efficacy; for pest or weed control at 31 ppm: 31 ppm of active ingredient; for pest or weed control at 125 ppm: 125 ppm of active ingredient; for pest or weed control at 500 ppm: 500 ppm of active ingredient
In short: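 Preventive protocol: spore inoculation followed compound spraying by 72 h, with 5 days' incubation at 20 °C and 100% relative humidity. Disease was rated 5 days after inoculation against solvent-only plants (0% = control level, 100% = disease-free).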

[5] = LogP by HPLC on reversed phase columns (EEC directive 79/831 Annex V.A8); format: physicochemical; conditions: reversed phase HPLC columns
In short: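 LogP derived from retention time, interpolated linearly between bracketing alkan-2-one standards (3 to 16 carbons). Where several values exist for one method, all are listed with "+"; UV spectra 200–400 nm at peak maxima gave lambda-max.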

[6] = test system: Xanthomonas campestris pv. campestris; experiment: In vivo preventive test on Xanthomonas campestris pv. campestris (black rot on cabbage); conditions: Xanthomonas campestris, sprayed 72 hours before inoculation, evaluated 8 or 10 days after inoculation, read-out: efficacy; for pest or weed control at 31 ppm: 31 ppm of active ingredient; for pest or weed control at 125 ppm: 125 ppm of active ingredient; for pest or weed control at 500 ppm: 500 ppm of active ingredient
In short: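 Young cabbage plants sprayed preventively with compound formulated in acetone/DMSO/Tween and diluted in water, then inoculated 72 h later with a bacterial spray. Kept at 27° C, 95% relative humidity; disease scored after 8 or 10 days as % efficacy versus solvent-treated controls (0% = control, 100% = no disease).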

[7] = preparation examples, method not indicated, read-out: Log P

Compound	pest or weed control at 500 ppm [1] [%]	inhibition at 5 ppm [2] [%]	inhibition at 5 ppm [3] [%]	fold induction at 75 ppm [4]	fold induction at 300 ppm [4]	pest or weed control at 31 ppm (Uromyces appendiculatus) [%]	pest or weed control at 125 ppm (Uromyces appendiculatus) [%]	pest or weed control at 500 ppm (Uromyces appendiculatus) [%]	pest or weed control at 31 ppm (Peronospora parasitica) [%]	pest or weed control at 125 ppm (Peronospora parasitica) [%]	pest or weed control at 500 ppm (Peronospora parasitica) [%]	chromatographic logP ([5]; method [a])	pest or weed control at 31 ppm [6] [%]	pest or weed control at 125 ppm [6] [%]	pest or weed control at 500 ppm [6] [%]	pest or weed control at 31 ppm [1] [%]	pest or weed control at 125 ppm [1] [%]	inhibition at 20 ppm [3] [%]	inhibition at 20 ppm [2] [%]	chromatographic logP [5, 7]
COC(=O)C(NC(=O)c1sc(Br)c(Br)c1C)C1CC1 (centres unmarked) [I.032]	70 to 79	≤ 30	≤ 30	> 2	> 2	90 to 100	90 to 100	90 to 100	80 to 89	90 to 100	90 to 100	3.41	90 to 100	90 to 100	90 to 100	–	–	–	–	–
CCOC(=O)C1(NC(=O)c2sc(Cl)c(Cl)c2C)CCC1 [I.047]	–	≤ 30	≤ 30	–	> 2	80 to 89	90 to 100	90 to 100	90 to 100	90 to 100	90 to 100	3.67	–	80 to 89	–	70 to 79	90 to 100	≤ 30	–	–
Cc1c(C(=S)NC2(C(=O)O)CC2)sc(Cl)c1Cl [I.060]	70 to 79	≤ 30	≤ 30	> 2	> 2	90 to 100	90 to 100	90 to 100	90 to 100	90 to 100	90 to 100	2.84	–	70 to 79	80 to 89	–	–	≤ 30	≤ 30	–
CCOC(=O)C(C#N)NC(=O)c1sc(Br)c(Br)c1C (centres unmarked) [I.077]	80 to 89	≤ 30	≤ 30	> 2	> 2	70 to 79	90 to 100	90 to 100	80 to 89	90 to 100	90 to 100	3.22	80 to 89	80 to 89	–	–	–	≤ 30	≤ 30	–
Cc1c(C(=O)NC(C(=O)O)C2CC2)sc(Br)c1Br (centres unmarked) [I.080, cyclopropyl{[(4,5-dibromo-3-methyl-2-thienyl)carbonyl]amino}acetic acid]	70 to 79	≤ 30	≤ 30	> 2	> 2	–	–	90 to 100	–	90 to 100	90 to 100	–	70 to 79	80 to 89	90 to 100	–	–	≤ 30	≤ 30	2.67
COC(=O)C(NC(=O)c1sc(Cl)c(Cl)c1C)C1CC1 (centres unmarked) [I.081, methyl cyclopropyl{[(4,5-dichloro-3-methyl-2-thienyl)carbonyl]amino}acetate]	–	≤ 30	≤ 30	> 2	> 2	–	90 to 100	90 to 100	80 to 89	90 to 100	90 to 100	–	80 to 89	90 to 100	–	–	70 to 79	≤ 30	≤ 30	3.31
Cc1c(C(=O)NC(C(=O)O)C2CC2)sc(Cl)c1Cl (centres unmarked) [I.095]	80 to 89	≤ 30	≤ 30	> 2	> 2	80 to 89	90 to 100	90 to 100	80 to 89	90 to 100	90 to 100	2.59	70 to 79	90 to 100	90 to 100	–	70 to 79	≤ 30	≤ 30	–
COC(=O)CC[C@H](NC(=O)c1sc(Cl)c(Cl)c1C)C(=O)OC [I.122]	80 to 89	≤ 30	≤ 30	> 2	> 2	–	–	90 to 100	90 to 100	90 to 100	90 to 100	3.08	90 to 100	90 to 100	90 to 100	70 to 79	80 to 89	≤ 30	≤ 30	–
